{
  "source": "patent US20130096370A1",
  "about": "“COMPOSITIONS AND SYSTEMS FOR THE REGULATION OF GENES” (priority 2002, published 2013)",
  "test_system": "p53 in MCF-7 breast cancer cells",
  "experiment": "Down modulation of endogenous p53 in MCF-7 cells by dox-inducible siRNA lentivectors (Western blot)",
  "type": "cell-based",
  "conditions": "dually transduced MCF-7 cells, 5 days in dox, FIG. 7B",
  "protocol": "To analyze the regulation of GFP a Hela cell clone carrying a single copy of the WPXLGFP provirus (Hela-GFP) was used. For transduction, Hela-GFP, MCF-7 or Hela cells were plated on 24-well plate (20×10^4 cells/well) and after 16 hrs medium containing recombinant lentivectors was added. Following 16 hrs of incubation the cells were washed, split and doxycycline was added to half of the transduced cells at a final concentration of 5 μg/ml. Five days later the cells were harvested and analyzed by FACS.\nCell extracts were prepared in RIPA lysis buffer (25 mM Tris pH 7.5, 1% Triton X-100, 0.5% sodium deoxycholate, 5 mM EDTA, 150 mM NaCl) containing a cocktail of protease inhibitors (Sigma). The protein samples (10 μg) were separated on 4-20% gradient PAGE-SDS gel, electroblotted to polyvinylidene fluoride membranes (Perkin Elmer) and exposed to antibodies against p53 (Santa Cruz Biotechnology), Lamin A/C (Santa Cruz Biotechnology), GFP (Clontech) and actin (Calbiochem). Antibodies conjugated with horseradish peroxidase (Amersham) and enhanced chemiluminescence (ECL; Amersham) was used for detection.",
  "data": [
    {"smiles": "C[C@H]1c2cccc(O)c2C(=O)C2=C(O)[C@]3(O)C(=O)C(C(N)=O)=C(O)[C@@H](N(C)C)[C@@H]3[C@@H](O)[C@@H]21", "note": "[doxycycline]", "values": [
      {"measurement": "dox concentration at which full-blown p53 suppression was achieved", "value": 0.25, "unit": "µg/mL"},
      {"measurement": "dox concentration at which p53 downregulation was already apparent", "value": 0.004, "unit": "µg/mL"}
    ]}
  ]
}
